Patent US20180201592A1, “2-AMINO-1,3,4-THIADIAZINE AND 2-AMINO-1,3,4-OXADIAZINE BASED ANTIFUNGAL AGENTS” (F2G Limited, priority 2015, published 2018)

Key:
Conditions in all cases: banded MIC grade
Aspergillus fumigatus = assay: Minimum inhibitory concentration, YAG medium; format: cell-based
Method: (§1) Between 1 and 5 mgs of compound were accurately weighed out into a sterile Eppendorf tube. The compound was dissolved in DMSO to give a solution containing 5 mg/mL. Tubes were stored at −20° C. until required.
(§2) On the day of testing thawed solutions were vortex mixed to ensure homogeneity. 30 μL of solution was removed and added to 570 μL of sterile water in a separate sterile Eppendorf. The thoroughly mixed solution was used to prepare a series of doubling dilutions in water, in a deep well plate. Thirteen replicate plates were prepared using a Minitrak by aspirating 20 μL from each well into eleven clear polystyrene 96 well plates.
(§3) Spores of Aspergillus spp. (Aspergillus fumigatus [two strains], Aspergillus terreus [two strains], Aspergillus niger and Aspergillus flavus) were harvested from cultures grown on Sabarauds agar for 5 days, and resuspended in PBS/Tween 80 to approx 1×10^7 cfu/mL. Each organism suspension was diluted in YAG medium (1% glucose, 1% ammonium chloride and 0.5% yeast extract) to 0.5-2×10^4cfu/mL. 80 μL of an organism suspension was added to each well of the plate containing drug dilutions.
(§4) This typically produced MIC plates with a drug range 50-0.05 mg/L and organism inocula of 1-2×10^4 cfu/mL for Aspergillus spp. All plates were incubated for 24 hrs at 35° C. Growth was assessed by monitoring the optical density at 485 nm for each well. The MIC of a compound is the lowest drug concentration that inhibits growth of an organism by >70% compared with a drug free control. MICs are recorded as mg/L. In cases where the MIC of an organism is […] the MIC is repeated using a concentration range of 0.5-0.0005 mg/L.

A. fumigatus 210 = assay: Minimum inhibitory concentration, YAG medium; format: cell-based, Aspergillus fumigatus
Method: as §1, §2, §3, §4

A. terreus 49 = assay: Minimum inhibitory concentration, YAG medium; format: cell-based, Aspergillus terreus
Method: (§5) The compound was dissolved in DMSO to give a solution containing 5 mg/mL. Tubes were stored at −20° C. until required. On the day of testing thawed solutions were vortex mixed to ensure homogeneity. 30 μL of solution was removed and added to 570 μL of sterile water in a separate sterile Eppendorf. The thoroughly mixed solution was used to prepare a series of doubling dilutions in water, in a deep well plate. Thirteen replicate plates were prepared using a Minitrak by aspirating 20 μL from each well into eleven clear polystyrene 96 well plates. Spores of Aspergillus spp. […] All plates were incubated for 24 hrs at 35° C. Growth was assessed by monitoring the optical density at 485 nm for each well. […] MICs are recorded as mg/L.

Aspergillus flavus = assay: Minimum inhibitory concentration, YAG medium; format: cell-based
Method: as §5

Aspergillus niger = assay: Minimum inhibitory concentration, YAG medium; format: cell-based
Method: as §5

Aspergillus terreus = assay: Minimum inhibitory concentration, YAG medium; format: cell-based
Method: as §5

C. albicans = assay: Minimum inhibitory concentration, RPMI medium; format: cell-based
Method: as §5, with “Assays were also performed in RPMI medium (Roswell Park Memorial Media 1640). To perform MIC tests in this medium, dilutions” for “Spores”, “compounds are prepared in microtitre plates as described above.” for “Aspergillus spp.”, “24-48” for “24”, “The following organisms were tested: […]” for “MICs are recorded as mg/L.”

C. parapsilosis = assay: Minimum inhibitory concentration, RPMI medium; format: cell-based
Method: as §5, with “Assays were also performed in RPMI medium (Roswell Park Memorial Media 1640). To perform MIC tests in this medium, dilutions” for “Spores”, “compounds are prepared in microtitre plates as described above.” for “Aspergillus spp.”, “24-48” for “24”, “The following organisms were tested: […]” for “MICs are recorded as mg/L.”

C. tropicalis = assay: Minimum inhibitory concentration, RPMI medium; format: cell-based
Method: as §5, with “Assays were also performed in RPMI medium (Roswell Park Memorial Media 1640). To perform MIC tests in this medium, dilutions” for “Spores”, “compounds are prepared in microtitre plates as described above.” for “Aspergillus spp.”, “24-48” for “24”, “The following organisms were tested: […]” for “MICs are recorded as mg/L.”

NC1=NNC(c2cccc3ccccc23)=CS1 was tested, and the “MIC grade, A. FUMIGATUS, YAG media” value (Aspergillus fumigatus) was 1 (1: ≥5 mg/L), the “MIC grade, A. FUMIGATUS 210, YAG media” value (A. fumigatus 210) was 1 (1: ≥5 mg/L) and the “MIC grade, A. TERREUS 49, YAG media” value (A. terreus 49) was 1 (1: ≥5 mg/L). For the same compound, the “MIC grade, A. FLAVUS, YAG media” value (Aspergillus flavus) was 1 (1: ≥5 mg/L), the “MIC grade, A. NIGER, YAG media” value (Aspergillus niger) was 1 (1: ≥5 mg/L) and the “MIC grade, A. TERREUS, YAG media” value (Aspergillus terreus) was 1 (1: ≥5 mg/L). For the same compound, the “MIC grade, C. ALBICANS, RPMI media” value (C. albicans) was 1 (1: ≥20 mg/L), the “MIC grade, C. PARAPSILOSIS, RPMI media” value (C. parapsilosis) was 2 (2: 5-20 mg/L) and the “MIC grade, C. TROPICALIS, RPMI media” value (C. tropicalis) was 1 (1: ≥20 mg/L).
COCCOCCC1=NN=C(N)SC1 was tested, and the “MIC grade, A. FUMIGATUS, YAG media” value (Aspergillus fumigatus) was 2 (2: 1-5 mg/L), the “MIC grade, A. FUMIGATUS 210, YAG media” value (A. fumigatus 210) was 2 (2: 1-5 mg/L) and the “MIC grade, A. TERREUS 49, YAG media” value (A. terreus 49) was 3 (3: 0.2-1 mg/L). For the same compound, the “MIC grade, A. FLAVUS, YAG media” value (Aspergillus flavus) was 2 (2: 1-5 mg/L), the “MIC grade, A. NIGER, YAG media” value (Aspergillus niger) was 3 (3: 0.2-1 mg/L) and the “MIC grade, A. TERREUS, YAG media” value (Aspergillus terreus) was 3 (3: 0.2-1 mg/L). The “MIC grade, C. ALBICANS, RPMI media” value (C. albicans) was 2 (2: 5-20 mg/L), the “MIC grade, C. PARAPSILOSIS, RPMI media” value (C. parapsilosis) was 2 (2: 5-20 mg/L) and the “MIC grade, C. TROPICALIS, RPMI media” value (C. tropicalis) was 1 (1: ≥20 mg/L).
NC1=NN=C(CCOc2ccc(Br)cc2)CS1 was tested, and the “MIC grade, A. FUMIGATUS, YAG media” value (Aspergillus fumigatus) was 4 (4: <0.2 mg/L), the “MIC grade, A. FUMIGATUS 210, YAG media” value (A. fumigatus 210) was 4 (4: <0.2 mg/L) and the “MIC grade, A. TERREUS 49, YAG media” value (A. terreus 49) was 1 (1: ≥5 mg/L). For the same compound, the “MIC grade, A. FLAVUS, YAG media” value (Aspergillus flavus) was 4 (4: <0.2 mg/L), the “MIC grade, A. NIGER, YAG media” value (Aspergillus niger) was 4 (4: <0.2 mg/L) and the “MIC grade, A. TERREUS, YAG media” value (Aspergillus terreus) was 3 (3: 0.2-1 mg/L). For the same compound, the “MIC grade, C. ALBICANS, RPMI media” value (C. albicans) was 1 (1: ≥20 mg/L), the “MIC grade, C. PARAPSILOSIS, RPMI media” value (C. parapsilosis) was 3 (3: 1-5 mg/L) and the “MIC grade, C. TROPICALIS, RPMI media” value (C. tropicalis) was 2 (2: 5-20 mg/L).
For CCCCCCOCCC1=NN=C(N)SC1, the “MIC grade, A. FUMIGATUS, YAG media” value (Aspergillus fumigatus) was 4 (4: <0.2 mg/L), the “MIC grade, A. FUMIGATUS 210, YAG media” value (A. fumigatus 210) was 4 (4: <0.2 mg/L) and the “MIC grade, A. TERREUS 49, YAG media” value (A. terreus 49) was 4 (4: <0.2 mg/L). For the same compound, the “MIC grade, A. FLAVUS, YAG media” value (Aspergillus flavus) was 4 (4: <0.2 mg/L), the “MIC grade, A. NIGER, YAG media” value (Aspergillus niger) was 4 (4: <0.2 mg/L) and the “MIC grade, A. TERREUS, YAG media” value (Aspergillus terreus) was 4 (4: <0.2 mg/L). For the same compound, the “MIC grade, C. ALBICANS, RPMI media” value (C. albicans) was 4 (4: <1 mg/L), the “MIC grade, C. PARAPSILOSIS, RPMI media” value (C. parapsilosis) was 4 (4: <1 mg/L) and the “MIC grade, C. TROPICALIS, RPMI media” value (C. tropicalis) was 3 (3: 1-5 mg/L).
NC1=NN=C(c2ccc3ccccc3c2)CS1 was tested, and the “MIC grade, A. FUMIGATUS, YAG media” value (Aspergillus fumigatus) was 2 (2: 1-5 mg/L), the “MIC grade, A. FUMIGATUS 210, YAG media” value (A. fumigatus 210) was 1 (1: ≥5 mg/L) and the “MIC grade, A. TERREUS 49, YAG media” value (A. terreus 49) was 1 (1: ≥5 mg/L). For the same compound, the “MIC grade, A. FLAVUS, YAG media” value (Aspergillus flavus) was 1 (1: ≥5 mg/L), the “MIC grade, A. NIGER, YAG media” value (Aspergillus niger) was 1 (1: ≥5 mg/L) and the “MIC grade, A. TERREUS, YAG media” value (Aspergillus terreus) was 1 (1: ≥5 mg/L). For the same compound, the “MIC grade, C. ALBICANS, RPMI media” value (C. albicans) was 1 (1: ≥20 mg/L), the “MIC grade, C. PARAPSILOSIS, RPMI media” value (C. parapsilosis) was 1 (1: ≥20 mg/L) and the “MIC grade, C. TROPICALIS, RPMI media” value (C. tropicalis) was 1 (1: ≥20 mg/L).
NC1=NN=C(CCOc2ccccc2)CS1 was tested, and the “MIC grade, A. FUMIGATUS, YAG media” value (Aspergillus fumigatus) was 4 (4: <0.2 mg/L), the “MIC grade, A. FUMIGATUS 210, YAG media” value (A. fumigatus 210) was 4 (4: <0.2 mg/L) and the “MIC grade, A. TERREUS 49, YAG media” value (A. terreus 49) was 3 (3: 0.2-1 mg/L). For the same compound, the “MIC grade, A. FLAVUS, YAG media” value (Aspergillus flavus) was 3 (3: 0.2-1 mg/L), the “MIC grade, A. NIGER, YAG media” value (Aspergillus niger) was 3 (3: 0.2-1 mg/L) and the “MIC grade, A. TERREUS, YAG media” value (Aspergillus terreus) was 4 (4: <0.2 mg/L). For the same compound, the “MIC grade, C. ALBICANS, RPMI media” value (C. albicans) was 3 (3: 1-5 mg/L), the “MIC grade, C. PARAPSILOSIS, RPMI media” value (C. parapsilosis) was 4 (4: <1 mg/L) and the “MIC grade, C. TROPICALIS, RPMI media” value (C. tropicalis) was 2 (2: 5-20 mg/L).
In the case of CCCCOc1cccc(C2=NN=C(N)SC2)c1, the “MIC grade, A. FUMIGATUS, YAG media” value (Aspergillus fumigatus) is reported as 1 (1: ≥5 mg/L), the “MIC grade, A. FUMIGATUS 210, YAG media” value (A. fumigatus 210) is reported as 1 (1: ≥5 mg/L) and the “MIC grade, A. TERREUS 49, YAG media” value (A. terreus 49) is reported as 1 (1: ≥5 mg/L). The “MIC grade, A. FLAVUS, YAG media” value (Aspergillus flavus) was 1 (1: ≥5 mg/L), the “MIC grade, A. NIGER, YAG media” value (Aspergillus niger) was 1 (1: ≥5 mg/L) and the “MIC grade, A. TERREUS, YAG media” value (Aspergillus terreus) was 1 (1: ≥5 mg/L). The “MIC grade, C. ALBICANS, RPMI media” value (C. albicans) was 1 (1: ≥20 mg/L), the “MIC grade, C. PARAPSILOSIS, RPMI media” value (C. parapsilosis) was 1 (1: ≥20 mg/L) and the “MIC grade, C. TROPICALIS, RPMI media” value (C. tropicalis) was 1 (1: ≥20 mg/L).
In the case of CCCCOc1ccc(C2=NN=C(N)SC2)cc1, the “MIC grade, A. FUMIGATUS, YAG media” value (Aspergillus fumigatus) is reported as 3 (3: 0.2-1 mg/L), the “MIC grade, A. FUMIGATUS 210, YAG media” value (A. fumigatus 210) is reported as 3 (3: 0.2-1 mg/L) and the “MIC grade, A. TERREUS 49, YAG media” value (A. terreus 49) is reported as 1 (1: ≥5 mg/L). For the same compound, the “MIC grade, A. FLAVUS, YAG media” value (Aspergillus flavus) was 3 (3: 0.2-1 mg/L), the “MIC grade, A. NIGER, YAG media” value (Aspergillus niger) was 3 (3: 0.2-1 mg/L) and the “MIC grade, A. TERREUS, YAG media” value (Aspergillus terreus) was 3 (3: 0.2-1 mg/L). For the same compound, the “MIC grade, C. ALBICANS, RPMI media” value (C. albicans) was 1 (1: ≥20 mg/L), the “MIC grade, C. PARAPSILOSIS, RPMI media” value (C. parapsilosis) was 1 (1: ≥20 mg/L) and the “MIC grade, C. TROPICALIS, RPMI media” value (C. tropicalis) was 1 (1: ≥20 mg/L).
